Experimental data as given in patent US20110257732A1, “STENTS HAVING CONTROLLED ELUTION” (Micell Technologies, Inc., priority 2010, published 2011).

How the values were obtained:
[1] = Stented artery sirolimus concentration (Example 34); format: in vivo, porcine; conditions: for Pharmaceutical agent released from the coated stent recovered in the analyzed arterial tissue: based on 135 micrograms on the original stent at time 0
Method: (§1) Pharmacokinetic studies were performed on coated stents prepared and implanted as noted in Example 32. […] The coating encapsuled each of the stents.
(§2) Complete balloon deflation was verified with fluoroscopy.
(§3) Subjects were euthanized at the testing time points, and the tissue adjacent the stent (for non-limiting example, tissue surrounding the stent—referred to generally as arterial tissue) was extracted for analysis of the amount of pharmaceutical agent therein. Stents were also analyzed for the amount of pharmaceutical agent remaining on the coated stent at each time point. Testing methods as noted elsewhere herein were used to determine the amount of pharmaceutical agent remaining on the stent or in the tissue, and/or are methods that would be known to one of skill in the art.

[2] = Whole blood rapamycin concentration after coated stent implantation, LC-MS/MS (Example 32); conditions: every time point 5 minutes to day 180, every subject; one coated stent (135 micrograms sirolimus) per porcine subject
Method: Blood serum levels of porcine subjects having coated stents implanted were tested at multiple time points. The coated stents implanted were prepared as follows: coated stents for the study comprise a coating that was deposited on the stent by deposition of rapamycin in dry powder form by RESS methods and equipment described herein and deposition of polymer particles by RESS methods and equipment described herein. A PDPDP (Polymer, sinter, Drug, Polymer, sinter, Drug, Polymer, sinter) coating sequence was used wherein the polymer was 50:50 PLGA, and the drug was rapamycin. The sinter step was performed at 100° C./150 psi/10 min after each “P” (or polymer) layer. […] The coating was about 5-15 micrometers thick on each stent, and comprised a thicker coating on the abluminal surface (coating bias). […]
Multiple batches of coated stents were created, implanted in the porcine subjects, one coated stent per subject, and each subject's blood serum levels were tested at multiple time points. […] The balloon was then inflated at a steady rate to a pressure sufficient to target a visually assessed balloon-artery ratio of 1.1:1-1.2:1. Confirmation of this balloon-artery ratio was made when the angiographic images were quantitatively assessed. […]
The whole blood sample was tested for rapamycin concentration using LC-MS/MS. Samples were quantified for rapamycin using ascomycin as the internal standard. […]

[3] = Sirolimus remaining on and released from explanted stents (Example 34); format: in vivo, porcine; conditions: for Stent-associated sirolimus, Drug Released, Mean: calculated from Day 0 baseline measurement
Method: as §1, §2, §3

[4] = Day 60, porcine coronary artery
[5] = Day 90, porcine coronary artery

With `CO[C@H]1C[C@@H]2CC[C@@H](C)[C@@](O)(O2)C(=O)C(=O)N2CCCC[C@H]2C(=O)O[C@H]([C@H](C)C[C@@H]2CC[C@@H](O)[C@H](OC)C2)CC(=O)[C@H](C)/C=C(\C)[C@@H](O)[C@@H](OC)C(=O)[C@H](C)C[C@H](C)/C=C/C=C/C=C/1C` [rapamycin] the “Pharmaceutical agent released from the coated stent recovered in the analyzed arterial tissue” value ([1]; at day 30) was “about 60%”, the “Pharmaceutical agent released from the coated stent recovered in the analyzed arterial tissue” value ([1]; between days 3 and 60) was “about 40%” and the concentration at 1 day ([1]; pig, stented arterial tissue, other: coated stent implanted in coronary artery, 135 micrograms per stent, day 1, porcine, coated stent 135 micrograms sirolimus, read-out: Stented artery sirolimus concentration (tissue within stented segments)) was 19600 ng/g. For the same molecule, the concentration at 3 day ([1]; pig, stented arterial tissue, other: coated stent implanted in coronary artery, 135 micrograms per stent, day 3, porcine, coated stent 135 micrograms sirolimus, read-out: Stented artery sirolimus concentration (tissue within stented segments)) was 21400 ng/g, the concentration at 7 day ([1]; pig, stented arterial tissue, other: coated stent implanted in coronary artery, 135 micrograms per stent, day 7, porcine, coated stent 135 micrograms sirolimus, read-out: Stented artery sirolimus concentration (tissue within stented segments)) was 42200 ng/g and the concentration at 14 day ([1]; pig, stented arterial tissue, other: coated stent implanted in coronary artery, 135 micrograms per stent, day 14, porcine, coated stent 135 micrograms sirolimus, read-out: Stented artery sirolimus concentration (tissue within stented segments)) was 55900 ng/g. It also gave a concentration at 21 day ([1]; pig, stented arterial tissue, other: coated stent implanted in coronary artery, 135 micrograms per stent, day 21, porcine, coated stent 135 micrograms sirolimus, read-out: Stented artery sirolimus concentration (tissue within stented segments)) of 173000 ng/g, a concentration at 30 day ([1]; pig, stented arterial tissue, other: coated stent implanted in coronary artery, 135 micrograms per stent, day 30, porcine, coated stent 135 micrograms sirolimus, read-out: Stented artery sirolimus concentration (tissue within stented segments)) of 565000 ng/g and a concentration at 45 day ([1]; pig, stented arterial tissue, other: coated stent implanted in coronary artery, 135 micrograms per stent, day 45, porcine, coated stent 135 micrograms sirolimus, read-out: Stented artery sirolimus concentration (tissue within stented segments)) of 582000 ng/g. For the same molecule, the concentration at 60 day ([1]; pig, stented arterial tissue, other: coated stent implanted in coronary artery, 135 micrograms per stent, day 60, porcine, coated stent 135 micrograms sirolimus, read-out: Stented artery sirolimus concentration (tissue within stented segments)) was 532000 ng/g, the concentration at 90 day ([1]; pig, stented arterial tissue, other: coated stent implanted in coronary artery, 135 micrograms per stent, day 90, porcine, coated stent 135 micrograms sirolimus, read-out: Stented artery sirolimus concentration (tissue within stented segments)) was 251000 ng/g and the “Concentration of rapamycin in whole blood (below quantifiable limit)” value [2] was under 0.100 ng/mL. The “Stent-associated sirolimus, Drug Released, Mean” value ([3]; Day 0 baseline) was 0 µg, the “Stent-associated sirolimus, Drug Remaining, Mean” value ([3]; Day 0 baseline, coated stent (PDPDP, 50:50 PLGA, 135 micrograms sirolimus)) was 137.00 µg and the “Stent-associated sirolimus, Drug Remaining, Mean” value ([3]; Day 1, coated stent (PDPDP, 50:50 PLGA, 135 micrograms sirolimus) in porcine coronary artery) was 137.00 µg. The “Stent-associated sirolimus, Drug Released, Mean” value ([3]; Day 1, porcine coronary artery) was 1.67 µg, the “Stent-associated sirolimus, Drug Remaining, Mean” value ([3]; Day 3, coated stent (PDPDP, 50:50 PLGA, 135 micrograms sirolimus) in porcine coronary artery) was 135.83 µg and the “Stent-associated sirolimus, Drug Released, Mean” value ([3]; Day 3, porcine coronary artery) was 2.83 µg. The “Stent-associated sirolimus, Drug Remaining, Mean” value ([3]; Day 7, coated stent (PDPDP, 50:50 PLGA, 135 micrograms sirolimus) in porcine coronary artery) was 127.83 µg, the “Stent-associated sirolimus, Drug Released, Mean” value ([3]; Day 7, porcine coronary artery) was 9.17 µg and the “Stent-associated sirolimus, Drug Remaining, Mean” value ([3]; Day 14, coated stent (PDPDP, 50:50 PLGA, 135 micrograms sirolimus) in porcine coronary artery) was 119.67 µg. For the same molecule, the “Stent-associated sirolimus, Drug Released, Mean” value ([3]; Day 14, porcine coronary artery) was 17.33 µg, the “Stent-associated sirolimus, Drug Remaining, Mean” value ([3]; Day 21, coated stent (PDPDP, 50:50 PLGA, 135 micrograms sirolimus) in porcine coronary artery) was 103.68 µg and the “Stent-associated sirolimus, Drug Released, Mean” value ([3]; Day 21, porcine coronary artery) was 33.32 µg. The “Stent-associated sirolimus, Drug Remaining, Mean” value ([3]; Day 30, coated stent (PDPDP, 50:50 PLGA, 135 micrograms sirolimus) in porcine coronary artery) was 65.25 µg, the “Stent-associated sirolimus, Drug Released, Mean” value ([3]; Day 30, porcine coronary artery) was 71.75 µg and the “Stent-associated sirolimus, Drug Remaining, Mean” value ([3]; Day 45, coated stent (PDPDP, 50:50 PLGA, 135 micrograms sirolimus) in porcine coronary artery) was 3.89 µg. The “Stent-associated sirolimus, Drug Released, Mean” value ([3]; Day 45, porcine coronary artery) was 133.12 µg, the “Stent-associated sirolimus, Drug Remaining, Mean” value ([3]; Day 60, coated stent (PDPDP, 50:50 PLGA, 135 micrograms sirolimus) in porcine coronary artery) was 1.59 µg and the “Average incremental stent sirolimus elution (loss) rate” value [3, 4] was 0.15 ± 0.04 µg/day. For the same molecule, the “Stent-associated sirolimus, Drug Released, Mean” value [3, 4] was 135.41 µg, the “Stent-associated sirolimus, Drug Remaining, Mean” value ([3]; Day 90, coated stent (PDPDP, 50:50 PLGA, 135 micrograms sirolimus) in porcine coronary artery) was 0.11 µg and the “Average incremental stent sirolimus elution (loss) rate” value [3, 5] was 0.05 ± 0.00 µg/day. For the same molecule, the “Stent-associated sirolimus, Drug Released, Mean” value [3, 5] was 136.89 µg and the “Average incremental stent sirolimus elution (loss) rate” value ([3]; peak around day 30, porcine coronary artery) was 4.27 ± 1.69 µg/day.
